Among the test systems are HCT-116 colon; KM12 colon; UACC-62 melanoma; TK-10 renal; PC-3 prostate; HT29 colon; OVCAR-4 ovarian; SNB-19 CNS; EKVX NSCLC; 786-0 renal; CAKI-1 renal.
What all share (assay): growth of human tumour cells (NCI), 48 h

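Exposure lasted 48 hours, with cells grown in 96-well plates and compounds tested at five concentrations. GI50 = concentration required for 50% inhibition of growth. Definition used: TGI = concentration required for complete inhibition of growth.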

In the case of `COc1ccc(NC(=O)/C(=N\NC(=O)C[n+]2ccccc2)c2c(O)c3ccc(O)cc3oc2=O)c([N+](=O)[O-])c1`, the TGI with HCT-116 colon, in the experiment with KM12 colon, in the experiment on UACC-62 melanoma, in the experiment with TK-10 renal, with PC-3 prostate and in the experiment on HT29 colon was greater than 100 µM each time. Also, the TGI with OVCAR-4 ovarian, in the experiment on SNB-19 CNS, in the experiment on EKVX NSCLC, in the experiment on 786-0 renal and with CAKI-1 renal was greater than 100 µM each time.

As to `COc1ccc(NC(=O)CC(=O)N2N=C(C)C(N=Nc3ccc(S(=O)(=O)c4ccc(N=NC5C(=O)N(C(=O)CC(=O)Nc6ccc(OC)cc6)N=C5C)cc4)cc3)C2=O)cc1` (centres undefined), the TGI in the experiment on HCT-116 colon, with KM12 colon, with UACC-62 melanoma, in the experiment with TK-10 renal, in the experiment on PC-3 prostate and in the experiment on HT29 colon was greater than 100 µM throughout. Also, the TGI with OVCAR-4 ovarian, with SNB-19 CNS, in the experiment on EKVX NSCLC, in the experiment on 786-0 renal and with CAKI-1 renal was greater than 100 µM throughout.

`O=C(CN1CCNCCN(CC(=O)N2CCCCC2)CCNCC1)N1CCCCC1`: the TGI in the experiment with HCT-116 colon, with KM12 colon, with UACC-62 melanoma, in the experiment with TK-10 renal, with PC-3 prostate and in the experiment on HT29 colon was greater than 100 µM each time. The TGI in the experiment with OVCAR-4 ovarian, in the experiment with SNB-19 CNS, with EKVX NSCLC, in the experiment on 786-0 renal and in the experiment with CAKI-1 renal was greater than 100 µM each time.

For the compound `Cc1cc(C)c(C2=NOC(c3ccccc3)(c3cc(=O)n(-c4ccccc4)s3)O2)c(C)c1` (centres undefined), the TGI in the experiment with HCT-116 colon is greater than 100 µM; in the experiment on KM12 colon it was greater than 100 µM; in the experiment on UACC-62 melanoma it was 51.5 µM; with TK-10 renal, 77.1 µM; in the experiment on PC-3 prostate, greater than 100 µM; in the experiment on HT29 colon it was 41.2 µM. For the same compound, the TGI with OVCAR-4 ovarian is greater than 100 µM; in the experiment with SNB-19 CNS it was greater than 100 µM; in the experiment with EKVX NSCLC it was 50.2 µM; in the experiment on 786-0 renal, 41.3 µM; with CAKI-1 renal it was 33.7 µM.

`C[C@@H]1CC[C@H]2C(COCCOCC3=C(C(F)(F)F)O[C@@H]4O[C@@]5(C)CC[C@H]6[C@H](C)CC[C@@H]3[C@@]46OO5)=C(C(F)(F)F)O[C@@H]3O[C@@]4(C)CC[C@@H]1[C@]32OO4`: the GI50 with HCT-116 colon is 0.0243 µM; with KM12 colon, 0.0305 µM; with UACC-62 melanoma it was 0.141 µM; in the experiment with TK-10 renal, 0.0557 µM; with PC-3 prostate it was less than 0.01 µM; in the experiment on HT29 colon, less than 0.0138 µM. Further, the GI50 is greater than 100 µM in the experiment with OVCAR-4 ovarian, 0.795 µM in the experiment on EKVX NSCLC and 0.304 µM with CAKI-1 renal. In addition, the TGI was greater than 100 µM in the experiment on HCT-116 colon; greater than 6.15 µM with KM12 colon; greater than 100 µM with UACC-62 melanoma; greater than 100 µM in the experiment on TK-10 renal; greater than 100 µM in the experiment with PC-3 prostate; greater than 100 µM with HT29 colon. Besides, the TGI was greater than 100 µM in the experiment on OVCAR-4 ovarian; greater than 100 µM in the experiment with SNB-19 CNS; greater than 100 µM in the experiment on EKVX NSCLC; greater than 100 µM in the experiment with 786-0 renal; greater than 12.9 µM with CAKI-1 renal.

With `CN(/N=C(\C(=O)O)c1ccccc1)C1=NCCCN1`, the TGI with HCT-116 colon, in the experiment with KM12 colon, with UACC-62 melanoma, in the experiment with TK-10 renal, in the experiment with PC-3 prostate and in the experiment on HT29 colon was greater than 100 µM each time. Besides, the TGI with OVCAR-4 ovarian, in the experiment on EKVX NSCLC, in the experiment on 786-0 renal and in the experiment on CAKI-1 renal was greater than 100 µM throughout.

Consider `COc1ccc(NC2Oc3cc4c(cc3C(c3cccc(OC)c3OC)C2C)OCO4)cc1` (centres undefined), for which the TGI was 16.3 µM in the experiment with HCT-116 colon; greater than 100 µM with KM12 colon; greater than 100 µM with UACC-62 melanoma; greater than 100 µM in the experiment on TK-10 renal; 51.3 µM in the experiment on PC-3 prostate; greater than 100 µM in the experiment on HT29 colon. Also, the TGI with SNB-19 CNS, in the experiment with EKVX NSCLC, in the experiment with 786-0 renal and with CAKI-1 renal was greater than 100 µM each time.

Consider `CCOC(=O)c1c(N2CCCC2)nsc1Nc1ccccc1`, for which the TGI with HCT-116 colon, with KM12 colon, in the experiment on TK-10 renal, with PC-3 prostate, in the experiment with HT29 colon and in the experiment on OVCAR-4 ovarian was greater than 100 µM in each case. For the same compound, the TGI in the experiment with SNB-19 CNS, with EKVX NSCLC, in the experiment on 786-0 renal and in the experiment with CAKI-1 renal was greater than 100 µM throughout.

For `COC(=O)C1C(OC(=O)c2ccccc2)CC2CCC1N2C(N)=O` (centres undefined), the TGI with HCT-116 colon, in the experiment with KM12 colon, in the experiment with UACC-62 melanoma, with PC-3 prostate, in the experiment on HT29 colon and with OVCAR-4 ovarian was greater than 100 µM in each case. Further, the TGI in the experiment with SNB-19 CNS, with EKVX NSCLC, in the experiment on 786-0 renal and in the experiment on CAKI-1 renal was greater than 100 µM in each case.

As for `NNC(=O)c1ccc(-n2nnc(C(=O)NN)c2C(=O)NN)cc1`, the TGI in the experiment on HCT-116 colon, in the experiment with KM12 colon, in the experiment with TK-10 renal, with PC-3 prostate, in the experiment with HT29 colon and in the experiment on OVCAR-4 ovarian was greater than 100 µM in each case. The TGI with SNB-19 CNS, with EKVX NSCLC, in the experiment with 786-0 renal and in the experiment on CAKI-1 renal was greater than 100 µM in each case.

On to `Fc1ccc2nc3n(c2c1)C(c1c(F)cccc1F)SC3` (centres undefined), for which the TGI in the experiment on HCT-116 colon, in the experiment on KM12 colon, with UACC-62 melanoma, in the experiment on TK-10 renal, in the experiment on PC-3 prostate and in the experiment on HT29 colon was greater than 100 µM each time. The TGI with OVCAR-4 ovarian, in the experiment with SNB-19 CNS, with 786-0 renal and with CAKI-1 renal was greater than 100 µM each time.

On to `O=C(NCCCCCCCCNC(=O)c1cc(-c2ccccc2)nc2ccccc12)c1cc(-c2ccccc2)nc2ccccc12`, for which the TGI in the experiment with HCT-116 colon, in the experiment on UACC-62 melanoma, in the experiment on TK-10 renal, with PC-3 prostate, in the experiment with HT29 colon and with OVCAR-4 ovarian was greater than 100 µM in each case. In addition, the TGI with SNB-19 CNS, in the experiment with EKVX NSCLC, with 786-0 renal and in the experiment with CAKI-1 renal was greater than 100 µM throughout.
